{"source": "ChEMBL document CHEMBL1122028", "about": "“1-Acyltriazoles as antiinflammatory agents” (J Med Chem, 1982)", "key": {"Mus musculus [1]": {"tested_on": "Mus musculus", "assay": "Tested for antiinflammatory activity in the mouse active Arthus (MAA) test by intraperitoneal administration", "assay_type": "functional", "settings": "ip, read-out: ID50 (the source's name)"}, "Mus musculus [2]": {"tested_on": "Mus musculus", "assay": "Tested for antiinflammatory activity in the mouse active Arthus (MAA) test by peroral administration", "assay_type": "functional", "settings": "for ED50: po, read-out: ID50 (the source's name)"}, "Rattus norvegicus [3]": {"tested_on": "Rattus norvegicus", "assay": "Biological activity against carrageenan-induced edema", "assay_type": "functional", "settings": "read-out: ID50 (the source's name)"}, "Rattus norvegicus [4]": {"tested_on": "Rattus norvegicus", "assay": "Biological activity against adjuvant-induced arthritis at the dose of 37.5 mg/kg (p.o.); 18/7", "assay_type": "functional", "settings": "route oral"}, "Rattus norvegicus [5]": {"tested_on": "Rattus norvegicus", "assay": "Biological activity against adjuvant-induced arthritis at the dose of 75 mg/kg (p.o.)", "assay_type": "functional", "settings": "route oral"}, "Rattus norvegicus [6]": {"tested_on": "Rattus norvegicus", "assay": "Biological activity against adjuvant-induced arthritis at the dose of 75 mg/kg (p.o.); 27/26", "assay_type": "functional", "settings": "route oral"}, "Rattus norvegicus [7]": {"tested_on": "Rattus norvegicus", "assay": "Biological activity against adjuvant-induced arthritis at the dose of 150 mg/kg (p.o.)", "assay_type": "functional", "settings": "route oral"}, "Rattus norvegicus [8]": {"tested_on": "Rattus norvegicus", "assay": "Biological activity against adjuvant-induced arthritis at the dose of 150 mg/kg (p.o.); 21/73", "assay_type": "functional", "settings": "route oral"}, "Rattus norvegicus [9]": {"tested_on": "Rattus norvegicus", "assay": "Biological activity against adjuvant-induced arthritis at the dose of 37.5 mg/kg (p.o.)", "assay_type": "functional", "settings": "route oral"}, "[10]": {"assay": "Therapeutic index (LD50/ID50, MAA) value of the compound", "settings": "read-out: TI"}, "[11]": {"assay": "Lethal dose required to produce acute toxicity in mice(ip)", "assay_type": "organism-based", "settings": "mouse, in vivo"}, "[12]": {"assay": "Lethal dose required to produce acute toxicity in mice(po)", "assay_type": "organism-based", "settings": "mouse, in vivo"}, "Rattus norvegicus [13]": {"tested_on": "Rattus norvegicus", "assay": "Biological activity against adjuvant-induced arthritis at the dose of 60 mg/kg (p.o.)", "assay_type": "functional", "settings": "route oral"}, "Rattus norvegicus [14]": {"tested_on": "Rattus norvegicus", "assay": "Biological activity against adjuvant-induced arthritis at the dose of 120 mg/kg (p.o.)", "assay_type": "functional", "settings": "route oral"}, "Rattus norvegicus [15]": {"tested_on": "Rattus norvegicus", "assay": "Biological activity against adjuvant-induced arthritis at the dose of 120 mg/kg (p.o.); 65/57", "assay_type": "functional", "settings": "route oral"}, "Rattus norvegicus [16]": {"tested_on": "Rattus norvegicus", "assay": "Biological activity against adjuvant-induced arthritis at the dose of 30 mg/kg (p.o.)", "assay_type": "functional", "settings": "route oral"}, "Rattus norvegicus [17]": {"organism": "Rattus norvegicus", "assay": "animal or person", "settings": "po, read-out: Inhibition", "description": "Biological activity against adjuvant-induced arthritis at the dose of 60 mg/kg (p.o.); 56/61"}, "Rattus norvegicus [18]": {"organism": "Rattus norvegicus", "assay": "animal or person", "settings": "po, read-out: Inhibition", "remark": "listed apart in the source", "description": "Biological activity against adjuvant-induced arthritis at the dose of 30 mg/kg (p.o.); 30/30"}}}
{"smiles": "CC(=O)n1nc(-c2ccc(Cl)cc2)nc1C", "values": [{"measurement": "ED50", "setting": "Mus musculus [1]", "value": 37, "unit": "mg/kg"}, {"measurement": "ID40", "setting": "Mus musculus [2]", "value": 175, "unit": "mg/kg"}, {"measurement": "ED50", "setting": "Mus musculus [2]", "value": 342, "unit": "mg/kg"}, {"measurement": "ED50", "setting": "Rattus norvegicus [3]", "value": "> 150", "unit": "mg/kg"}, {"measurement": "inhibition in vivo at 37.5 mg/kg", "setting": "Rattus norvegicus [4]", "value": 18, "unit": "%"}, {"measurement": "inhibition in vivo at 75 mg/kg", "setting": "Rattus norvegicus [5]", "value": 90, "unit": "%"}, {"measurement": "inhibition in vivo at 75 mg/kg", "setting": "Rattus norvegicus [6]", "value": 27, "unit": "%"}, {"measurement": "inhibition in vivo at 150 mg/kg", "setting": "Rattus norvegicus [7]", "value": 90, "unit": "%"}, {"measurement": "inhibition in vivo at 150 mg/kg", "setting": "Rattus norvegicus [8]", "value": 21, "unit": "%"}, {"measurement": "inhibition in vivo at 37.5 mg/kg", "setting": "Rattus norvegicus [9]", "value": 90, "unit": "%"}, {"measurement": "selectivity ratio", "setting": "[10]", "value": "> 9.35"}, {"measurement": "LD50", "setting": "[11]", "value": 600, "unit": "mg/kg"}, {"measurement": "LD50", "setting": "[12]", "value": "> 3200", "unit": "mg/kg"}]}
{"smiles": "Cc1nnc(C)n1/N=C(\\N)c1ccc(C(F)(F)F)cc1", "values": [{"measurement": "ED50", "setting": "Mus musculus [2]", "value": "> 600", "unit": "mg/kg"}]}
{"smiles": "CCc1nnc(CC)n1N", "values": [{"measurement": "ED50", "setting": "Mus musculus [2]", "value": "> 600", "unit": "mg/kg"}]}
{"smiles": "Cc1nc(-c2ccc(Cl)cc2)nn1C(=O)c1ccccc1", "values": [{"measurement": "ED50", "setting": "Mus musculus [2]", "value": "> 600", "unit": "mg/kg"}]}
{"smiles": "Cc1ccc(C(=N)Nn2c(C)nnc2C)cc1", "values": [{"measurement": "ED50", "setting": "Mus musculus [2]", "value": "> 600", "unit": "mg/kg"}]}
{"smiles": "CC(=O)n1nc(-c2ccc(C)cc2)nc1C", "values": [{"measurement": "ED50", "setting": "Mus musculus [2]", "value": "> 600", "unit": "mg/kg"}]}
{"smiles": "Cc1nnc(C)n1/N=C(\\N)c1ccccc1", "values": [{"measurement": "ED50", "setting": "Mus musculus [2]", "value": "> 600", "unit": "mg/kg"}]}
{"smiles": "CC(=O)n1nc(-c2ccc(C(F)(F)F)cc2)nc1C", "values": [{"measurement": "ED50", "setting": "Mus musculus [2]", "value": 411, "unit": "mg/kg"}]}
{"smiles": "CCC(=O)n1nc(-c2ccc(Cl)cc2)nc1C", "values": [{"measurement": "ED50", "setting": "Mus musculus [2]", "value": 408, "unit": "mg/kg"}]}
{"smiles": "CCc1nnc(CC)n1/N=C(\\N)c1ccc(Cl)cc1", "values": [{"measurement": "ED50", "setting": "Mus musculus [2]", "value": "> 600", "unit": "mg/kg"}]}
{"smiles": "CCc1nc(-c2ccc(Cl)cc2)nn1C(C)=O", "values": [{"measurement": "ED50", "setting": "Mus musculus [2]", "value": 543, "unit": "mg/kg"}]}
{"smiles": "CC(=O)n1nc(-c2ccccc2)nc1C", "values": [{"measurement": "ED50", "setting": "Mus musculus [2]", "value": 439, "unit": "mg/kg"}]}
{"smiles": "CC(C)Cc1ccc(C(C)C(=O)O)cc1", "note": "(configuration not stated) [IBUPROFEN]", "values": [{"measurement": "ED50", "setting": "Mus musculus [1]", "value": "> 150", "unit": "mg/kg"}, {"measurement": "ID40", "setting": "Mus musculus [2]", "value": 386, "unit": "mg/kg"}, {"measurement": "ED50", "setting": "Mus musculus [2]", "value": "> 600", "unit": "mg/kg"}, {"measurement": "ED50", "setting": "Rattus norvegicus [3]", "value": 70, "unit": "mg/kg"}, {"measurement": "inhibition in vivo at 60 mg/kg", "setting": "Rattus norvegicus [13]", "value": 100, "unit": "%"}, {"measurement": "inhibition in vivo at 120 mg/kg", "setting": "Rattus norvegicus [14]", "value": 100, "unit": "%"}, {"measurement": "inhibition in vivo at 120 mg/kg", "setting": "Rattus norvegicus [15]", "value": 65, "unit": "%"}, {"measurement": "inhibition in vivo at 30 mg/kg", "setting": "Rattus norvegicus [16]", "value": 100, "unit": "%"}, {"measurement": "selectivity ratio", "setting": "[10]", "value": "< 2.15"}, {"measurement": "LD50", "setting": "[11]", "value": 490, "unit": "mg/kg"}, {"measurement": "LD50", "setting": "[12]", "value": 1650, "unit": "mg/kg"}, {"measurement": "inhibition in vivo at 60 mg/kg", "setting": "Rattus norvegicus [17]", "value": 56, "unit": "%"}, {"measurement": "inhibition in vivo at 30 mg/kg", "setting": "Rattus norvegicus [18]", "value": 30, "unit": "%"}]}
